Test results as given in US11591315B2, “Substituted pyrazole-pyrimidines, variants thereof, and uses therefore” (Afferent Pharmaceuticals, Inc., priority 2016, dated 2023).

Tests used:
human P2X2/3 channels = target: T1, human P2X2/3 channels (Homo sapiens, UniProt P56373+Q9UBL9); assay: FlexStation calcium fluorescence assay, 1321N1 cells stably transfected with human P2X2 and P2X3 (heteromeric P2X2/3 channels); format: cell-based; conditions: 1321N1-hP2X2/3 cells, Fluo-4 dye, agonist ATP, 20 minutes incubation; read-out: Average pIC50 P2X2/3 (converted)
T1 construct: expressed in transfected cells; host or cells: 1321N1 human astrocytoma cells (1321N1-hP2X2/3)
T1 sequence (P56373 1-397): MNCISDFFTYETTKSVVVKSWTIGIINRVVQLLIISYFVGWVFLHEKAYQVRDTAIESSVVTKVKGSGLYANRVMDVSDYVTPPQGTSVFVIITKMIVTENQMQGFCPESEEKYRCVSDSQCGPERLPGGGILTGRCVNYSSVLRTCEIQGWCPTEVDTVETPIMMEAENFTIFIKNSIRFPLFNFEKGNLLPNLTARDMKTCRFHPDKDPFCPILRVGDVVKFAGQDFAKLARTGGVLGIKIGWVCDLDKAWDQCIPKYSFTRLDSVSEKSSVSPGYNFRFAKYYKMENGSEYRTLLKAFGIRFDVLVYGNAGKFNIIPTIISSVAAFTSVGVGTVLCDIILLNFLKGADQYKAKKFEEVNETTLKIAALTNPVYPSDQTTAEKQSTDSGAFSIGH
T1 sequence (Q9UBL9 1-471): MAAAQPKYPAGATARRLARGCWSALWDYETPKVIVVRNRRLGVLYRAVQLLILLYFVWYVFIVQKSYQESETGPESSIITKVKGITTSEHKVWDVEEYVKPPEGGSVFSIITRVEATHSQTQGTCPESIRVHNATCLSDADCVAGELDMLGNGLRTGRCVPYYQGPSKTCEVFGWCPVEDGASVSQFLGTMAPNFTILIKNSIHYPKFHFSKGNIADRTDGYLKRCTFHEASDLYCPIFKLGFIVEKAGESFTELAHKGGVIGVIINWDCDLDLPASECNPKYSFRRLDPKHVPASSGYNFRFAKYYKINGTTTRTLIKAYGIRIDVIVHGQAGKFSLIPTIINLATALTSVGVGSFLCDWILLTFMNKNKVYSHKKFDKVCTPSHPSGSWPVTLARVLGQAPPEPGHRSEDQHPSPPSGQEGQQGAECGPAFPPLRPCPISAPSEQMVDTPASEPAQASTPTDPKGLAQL
Experimental: (§1) 1321N1 human astrocytoma and HEK293 human embryonic kidney cells were stably transfected with human P2X2 and P2X3 receptor subunits to form heteromeric P2X2/3 channels and passaged in flasks. Additionally, HEK293 cells were stably transfected with human P2X3 receptor subunits to form homomeric P2X3 channels.
(§2) Approximately 24 hours before the FlexStation calcium fluorescence experiment, cells were released from their flasks, centrifuged and re-suspended in nutrient medium. The cells were aliquoted into black-wall, clear-bottom 96 well plates at a density of 25,000 cells per well and incubated overnight in a humidified, CO2-enriched (5%) atmosphere at 37° C. […]
(§3) After 20 minutes incubation at room temperature and protected from light, the assay plates were loaded into the FlexStation microplate reader and baseline fluorescence measured with an excitation wavelength of 485 nm and emission wavelength readings centered at 525 nm (515 nm cut off).
(§4) The agonist was dispensed by the FlexStation during fluorescence measurement to construct agonist activation and antagonist inhibition curves. […] Peak fluorescence was measured and curves generated using a four parameter nonlinear regression equation. […]

human P2X3 receptor = target: T2, human P2X3 receptor (Homo sapiens, UniProt P56373); assay: FlexStation calcium fluorescence assay, HEK293 cells stably transfected with human P2X3 (homomeric P2X3 channels); format: cell-based; conditions: HEK-hP2X3 cells, Calcium 6 dye, agonist 1 μM α,β-meATP, 20 minutes incubation; read-out: Average pIC50 P2X3 (converted)
T2 construct: expressed in transfected cells; host or cells: HEK293 human embryonic kidney cells (HEK-hP2X3)
T2 sequence (P56373 1-397): T1 sequence (P56373 1-397)
Experimental: as §1, §2, §3, §4

Row | IC50 (human P2X2/3 channels) | IC50 (human P2X3 receptor) | Compound
1 | > 10 µM | 6.92 µM | CCOc1cc(Oc2cnc(N)nc2N)n(C(C)C)n1 [Compound 1]
2 | 1.95 µM | 0.288 µM | COc1cc(Oc2cnc(N)nc2N)n(C(C)C)n1 [Compound 2]
